Read-outs that look alike come from different tables or passages of the source. A value given as a limit tells only on which side of the number the result lay.

Test [1] has as its target isolated recombinant JAK2 kinase domain (Homo sapiens (Human), UniProt O60674). Briefly: JAK2 enzyme assay (Caliper LabChip, Ki). The format is biochemical. The procedure: (§1) JAK Enzyme Assays were carried out as follows:
The activity of the isolated recombinant JAK1 and JAK2 kinase domain was measured by monitoring phosphorylation of a peptide derived from JAK3 ([…] fluorescently labeled on the N-terminus with 5-carboxyfluorescein) using the Caliper LabChip® technology (Caliper Life Sciences, Hopkinton, Mass.). […] Reactions were incubated at 22° C. in 384-well polypropylene microtiter plates for 30 minutes and then stopped by addition of 25 μL of an EDTA containing solution (100 mM HEPES buffer (pH 7.2), 0.015% Brij-35, 150 mM EDTA), resulting in a final EDTA concentration of 50 mM. After termination of the kinase reaction, the proportion of phosphorylated product was determined as a fraction of total peptide substrate using the Caliper LabChip® 3000 according to the manufacturer's specifications.

The target of test [2] is isolated recombinant JAK1 kinase domain (Homo sapiens (Human), UniProt P23458). Briefly: JAK1 enzyme assay (Caliper LabChip, Ki). In kind it is biochemical. The procedure:
as §1
The activity of the isolated recombinant JAK1 and JAK2 kinase domain was measured by monitoring phosphorylation of a peptide derived from JAK3 (Val-Ala-Leu-Val-Asp-Gly-Tyr-Phe-Arg-Leu-Thr-Thr, fluorescently labeled on the N-terminus with 5-carboxyfluorescein) using the Caliper LabChip® technology (Caliper Life Sciences, Hopkinton, Mass.). […] Reactions were incubated at 22° C. in 384-well polypropylene microtiter plates for 30 minutes and then stopped by addition of 25 μL of an EDTA containing solution (100 mM HEPES buffer (pH 7.2), 0.015% Brij-35, 150 mM EDTA), resulting in a final EDTA concentration of 50 mM. After termination of the kinase reaction, the proportion of phosphorylated product was determined as a fraction of total peptide substrate using the Caliper LabChip® 3000 according to the manufacturer's specifications. Ki values were then determined using the Morrison tight binding model (Morrison, J. F., Biochim. Biophys. Acta. 185:269-296 (1969); William, J. W. and Morrison, J. F., Meth. Enzymol., 63:437-467 (1979)) modified for ATP-competitive inhibition [Ki=Ki,app/(1+[ATP]/Km,app)].

Chain of isolated recombinant JAK1 kinase domain (P23458 875-1153): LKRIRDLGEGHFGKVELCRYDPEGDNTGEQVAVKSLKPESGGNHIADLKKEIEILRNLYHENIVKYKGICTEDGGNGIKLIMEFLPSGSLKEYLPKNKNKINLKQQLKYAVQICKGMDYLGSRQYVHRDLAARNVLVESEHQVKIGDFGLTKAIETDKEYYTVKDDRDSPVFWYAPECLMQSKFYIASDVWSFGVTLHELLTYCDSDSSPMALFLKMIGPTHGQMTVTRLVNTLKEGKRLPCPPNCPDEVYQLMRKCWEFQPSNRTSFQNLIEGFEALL
Chain of isolated recombinant JAK2 kinase domain (O60674 849-1124): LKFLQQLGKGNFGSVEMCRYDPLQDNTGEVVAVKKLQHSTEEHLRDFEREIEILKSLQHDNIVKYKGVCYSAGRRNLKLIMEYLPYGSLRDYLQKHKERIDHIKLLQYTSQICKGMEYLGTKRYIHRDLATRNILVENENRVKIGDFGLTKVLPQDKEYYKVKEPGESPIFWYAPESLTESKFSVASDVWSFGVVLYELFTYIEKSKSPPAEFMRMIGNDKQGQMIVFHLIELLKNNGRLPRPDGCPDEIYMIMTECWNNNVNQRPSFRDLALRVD

For the molecule `CS(=O)(=O)c1ccc(CN2CCC(CC#N)(n3cc(C(N)=O)c(NC(=O)C4CC4)n3)CC2)cc1` [Example 71], the values for the Ki in test [1] and in test [2] (read-out: JAK1 Ki) were > 319 nM and 34.1 nM, respectively.
Consider `N#CC[C@]1(n2cc(C(N)=O)c(NC(=O)C3CC3)n2)CC[C@H](NCc2cccc(F)c2)CC1` [Example 113], for which the Ki in test [1] amounted to 187 nM; in test [2] it was 14.4 nM.
For `N#CC[C@]1(n2cc(C(N)=O)c(NC(=O)C3CC3)n2)CC[C@H](NC2CC(F)(F)C2)CC1` [Example 172, 1-[1-(cyanomethyl)-4-[(3,3-difluorocyclobutyl)amino]cyclohexyl]-3-(cyclopropanecarbonylamino) pyrazole-4-carboxamide], in that order: > 319 nM and > 562 nM.
On to `CC(F)(F)C(=O)N1CCC(CC#N)(n2cc(C(N)=O)c(NC(=O)C3CC3)n2)CC1` [Example 171, 1-[4-(cyanomethyl)-1-(2,2-difluoropropanoyl)-4-piperidyl]-3-(cyclopropanecarbonylamino) pyrazole-4-carboxamide], for which the Ki was 30.3 nM in test [1] and 6.6 nM in test [2] (read-out: JAK1 Ki).
In the case of `N#CC[C@]1(n2cc(C(N)=O)c(NC(=O)C3CC3)n2)CC[C@H](NCCC(F)(F)F)CC1` [Example 125], the Ki in test [1] was determined as 78.3 nM; in test [2] it was 7.3 nM.
Regarding `N#CCC1(n2cc(C(N)=O)c(NC(=O)C3CC3)n2)CCN(Cc2cccc(Cl)c2)CC1` [Example 59], the Ki in test [1] was 35.9 nM; in test [2] (read-out: JAK1 Ki), 4.7 nM.
Taken in the same sequence, the figures for `N#CCC1(n2cc(C(N)=O)c(NC(=O)C3CC3)n2)CCC2(CC1)COC2` [Example 5, 1-(7-(Cyanomethyl)-2-oxaspiro[3.5]nonan-7-yl)-3-(cyclopropanecarboxamido)-1H-pyrazole-4-carboxamide] were 189 nM and 22.8 nM.
Take `N#CC[C@]1(n2cc(C(N)=O)c(NC(=O)C3CC3)n2)CC[C@@H](N2CC3(CCC3)C2)CC1` [Example 108]: the Ki was 205 nM in test [1] and 466 nM in test [2].
For the molecule `COC1(C(F)(F)F)CN([C@H]2CC[C@](CC#N)(n3cc(C(N)=O)c(NC(=O)C4CC4)n3)CC2)C1` [Example 132], the figures for the Ki in test [1] and in test [2] (read-out: JAK1 Ki) were > 319 nM and 217 nM, respectively.
As to `CN[C@H]1CC[C@@](CC#N)(n2cc(C(N)=O)c(NC(=O)C3CC3)n2)CC1` [Example 100], the figures for the Ki in test [1] and in test [2] were > 319 nM and > 562 nM, respectively.
`N#CCC1(n2cc(C(N)=O)c(NC(=O)C3CC3)n2)CCC2(CC1)Oc1ccccc1O2` (racemic) [Example 34]: the Ki in test [1] stood at 276 nM; in test [2], 24.8 nM.
For `N#CCC1(n2cc(C(N)=O)c(NC(=O)C3CC3)n2)CCN(Cc2cccc(OC(F)F)c2)CC1` [Example 92], the Ki stood at 88.1 nM in test [1] and 10.9 nM in test [2] (read-out: JAK1 Ki).
Taken in the same sequence, the figures for `N#CCC1(n2cc(C(N)=O)c(NC(=O)C3CC3)n2)CCN(Cc2ccc(N3CCCC3)cc2)CC1` [Example 84] were > 319 nM and 85 nM.
For `N#CCC1(n2cc(C(N)=O)c(NC(=O)C3CC3)n2)CCN(CCC(F)(F)F)CC1` [Example 96], in that order: 113 nM and 24.1 nM.
For the molecule `N#CC[C@]1(n2cc(C(N)=O)c(NC(=O)C3CC3)n2)CC[C@@H](NCc2cccc(C#N)c2)CC1` [Example 124], the Ki in test [1] stood at 273 nM; in test [2], 32.7 nM.
On to `N#CCC1(n2cc(C(N)=O)c(NC(=O)C3CC3)n2)CCN(C(=O)Cc2ccccc2)CC1` [Example 18, 1-(4-(Cyanomethyl)-1-(2-phenylacetyl)piperidin-4-yl)-3-(cyclopropanecarboxamido)-1H-pyrazole-4-carboxamide], for which the Ki in test [1] worked out at 235 nM; in test [2] (read-out: JAK1 Ki), 30.8 nM.
Regarding `N#CCC1(n2cc(C(N)=O)c(NC(=O)C3CC3)n2)CCN(Cc2ccc(-c3cccc(C(F)(F)F)c3)cc2)CC1` [Example 150, 1-[4-(cyanomethyl)-1-[[4-[3-(trifluoromethyl)phenyl]phenyl]methyl]-4-piperidyl]-3-(cyclopropanecarbonylamino) pyrazole-4-carboxamide], the Ki in test [1] was determined as 208 nM; in test [2] (read-out: JAK1 Ki) it was 15.9 nM.
For `N#CCC1(n2cc(C(N)=O)c(NC(=O)C3CC3)n2)CCN(Cc2ccc(-c3ccncc3)cc2)CC1` [Example 159, 1-[4-(cyanomethyl)-1-[[4-(4-pyridyl)phenyl]methyl]-4-piperidyl]-3-(cyclopropanecarbonylamino) pyrazole-4-carboxamide], in that order: 101 nM and 19 nM.
For the molecule `N#CC[C@]1(n2cc(C(N)=O)c(NC(=O)C3CC3)n2)CC[C@H](NCc2ccc(Cl)cc2)CC1` [Example 119], the Ki in test [1] was > 319 nM; in test [2] it was 437 nM.
Turning to `N#CCC1(n2cc(C(N)=O)c(NC(=O)[C@H]3C[C@H]3C3CC3)n2)CCN(CC(F)(F)F)CC1` (stereo in doubt) [Example 176, 1-[4-(cyanomethyl)-1-(2,2,2-trifluoroethyl)-4-piperidyl]-3-[(2-cyclopropylcyclopropanecarbonyl)amino]pyrazole-4-carboxamide], the results for the Ki in test [1] and in test [2] (read-out: JAK1 Ki) were > 319 nM and 302 nM, respectively.
Taken in the same sequence, the figures for `N#CCC1(n2cc(C(N)=O)c(NC(=O)C3CC3)n2)CCN(C(=O)CC(F)(F)F)CC1` [Example 170, 1-[4-(cyanomethyl)-1-(3,3,3-trifluoropropanoyl)-4-piperidyl]-3-(cyclopropanecarbonylamino) pyrazole-4-carboxamide] were 70.9 nM and 6.7 nM.
For `N#CCC1(n2cc(C(N)=O)c(NC(=O)C3CC3)n2)CCN(C2CCN(C(=O)c3ccnc(C(F)(F)F)c3F)CC2)CC1` [Example 98], in that order: 152 nM and 74.6 nM.
With `N#CC[C@]1(n2cc(C(N)=O)c(NC(=O)C3CC3)n2)CC[C@H](NCc2ccc(-c3ccccc3)cc2)CC1` [Example 127], the values for the inhibition constant (Ki) in test [1] and in test [2] were > 319 nM and > 562 nM, respectively.
`CS(=O)(=O)c1ccccc1CN1CCC(CC#N)(n2cc(C(N)=O)c(NC(=O)C3CC3)n2)CC1` [Example 69]: the figures for the inhibitory constant (Ki) in test [1] and in test [2] (read-out: JAK1 Ki) were 124 nM and 15.2 nM, respectively.
Taken in the same sequence, the figures for `N#CCC1(n2cc(C(N)=O)c(NC(=O)[C@@H]3C[C@H]3F)n2)CCN(CC(F)(F)F)CC1` [Example 30] were 53.2 nM and 8.6 nM.
For the molecule `N#CCC1(n2cc(C(N)=O)c(NC(=O)C3CC3)n2)CCN(Cc2ccc(N3CCCCC3)cc2)CC1` (racemic) [Example 39], the Ki in test [1] was > 319 nM; in test [2], 98.2 nM.
Regarding `N#CCC1(n2cc(C(N)=O)c(NC(=O)C3CC3)n2)CCN(Cc2ccccc2C(F)(F)F)CC1` [Example 61], the Ki in test [1] is 118 nM; in test [2] (read-out: JAK1 Ki) it was 8.3 nM.
Taken in the same sequence, the figures for `COc1ccc(CN2CCC(CC#N)(n3cc(C(N)=O)c(NC(=O)C4CC4)n3)CC2)cc1` [Example 43] were 170 nM and 25.8 nM.
Taken in the same sequence, the figures for `N#CCC1(n2cc(C(N)=O)c(NC(=O)C3CC3)n2)CCN(Cc2cccc(C#N)c2)CC1` [Example 65] were 123 nM and 13.7 nM.
Take `N#CCC1(n2cc(C(N)=O)c(NC(=O)C3CC3)n2)CCN(Cc2ccccc2)CC1` [Example 40]: the Ki in test [1] came out at 96.7 nM; in test [2] (read-out: JAK1 Ki), 7.9 nM.
For `CC(C)(C)OC(=O)N[C@H]1CC[C@](CC#N)(n2cc(C(N)=O)c(NC(=O)C3CC3)n2)CC1` [Example 35], the Ki in test [1] stood at 275 nM; in test [2] it was 20.2 nM.
For the molecule `N#CC[C@]1(n2cc(C(N)=O)c(NC(=O)C3CC3)n2)CC[C@H](NC2CCOCC2)CC1` [Example 103], the Ki in test [1] is > 319 nM; in test [2], 38 nM.
For `N#CC[C@]1(n2cc(C(N)=O)c(NC(=O)C3CC3)n2)CC[C@H](N2CC(F)C2)CC1` [Example 181, 1-[1-(cyanomethyl)-4-(3-fluoroazetidin-1-yl)cyclohexyl]-3-(cyclopropanecarbonylamino) pyrazole-4-carboxamide], the inhibition constant Ki in test [1] was > 319 nM; in test [2], > 562 nM.
For `C[C@@H]1C[C@H]1C(=O)Nc1nn(C2(CC#N)CCN(CC(F)(F)F)CC2)cc1C(N)=O` [Example 32], the Ki in test [1] was 196 nM; in test [2] (read-out: JAK1 Ki) it was 71.8 nM.
For `N#CCC1(n2cc(C(N)=O)c(NC(=O)C3CC3)n2)CCN(Cc2ccc(C(F)(F)F)cc2)CC1` [Example 63], the Ki in test [1] was 134 nM; in test [2] (read-out: JAK1 Ki), 14.4 nM.
For `COc1ccccc1CN1CCC(CC#N)(n2cc(C(N)=O)c(NC(=O)C3CC3)n2)CC1` [Example 41], in that order: > 319 nM and 53.8 nM.

A word on the Ki: it is a measure of affinity in units of concentration, obtained from inhibition or displacement.

These data come from patent US11731943B2, “Therapeutic compounds, compositions and methods of use thereof” (priority 2016, dated 2023).
